The source of these data is PMC9602407, “Purification, Identification and Molecular Docking of Immunomodulatory Peptides from the Heads of Litopenaeus vannamei” (Foods, 2022).

The test system of one series is pepsin and trypsin. Briefly: In vitro gastrointestinal digestion stability (pepsin, then trypsin), read out as MRPR. The series is classed as in vitro ADME. The note with it: for Maximal increase of MRPR through gastrointestinal digestion compared with the untreated group: 2% (w/w) pepsin pH 2.0 37 °C 2 h, then 2% (w/w) trypsin pH 7.5 37 °C 2 h, 1 mg/mL peptide. The protocol: The macrophages were cultured in a medium (containing 90% DMEM medium, 10% FBS, and 1% double antibody) at 37 °C and 5% CO2. The MRPR was determined following to the MTT assay used by Xu et al.. The density of the log-phase cells was adjusted to 1 × 10^5 cells/mL, and 100 μL/well of cell suspension was seeded in 96-well plates and incubated overnight in an incubator (BB-150-CO2 incubator, Thermo Scientific, Waltham, MA, USA). The perimeter of the 96-well plate was filled with PBS. The old culture medium was then discarded, 200 μL of the sample solution was added (DMEM medium was used to dissolve the sample to the desired concentration), and control and blank groups were set up with DMEM medium. After incubating for 36 h, 200 μL of medium (containing 5% MTT) was added to each well instead of the original medium and cultured in the dark for 4 h. After the supernatant was discarded, 150 μL of DMSO was added, shaken for 20 min at room temperature, and the absorbance was detected at 490 nm by a microplate reader (ELx800, BioTek Instruments, Winooski, VT, USA). The MRPR (%) was calculated using the following formula:Macrophage relative proliferation rate (%) = (A1 − A3)/(A2 − A3) × 100 (1) where A1 and A2 represented the sample solution and DMEM medium with cells (sample and control group), respectively, and A3 represented DMEM medium with no cells (blank group).
For gastrointestinal digestion stability, computer simulated gastrointestinal digestion was first performed using the PeptideCutter (https://web.expasy.org/peptide_cutter/) (accessed on 20 June 2022) with a selection of pepsin (pH > 2) and trypsin. Then, six peptides (10 mg) were dissolved in 10 mL of distilled water, the pH was adjusted to pH 2.0 with 1 M HCl, and then 2% (w/w) pepsin was added and incubated at 37 °C for 2 h to simulate gastric digestion. The pH of the gastric digest was then adjusted to 5.3 with 0.9 M NaHCO3 solution and to pH 7.5 with 1 M NaOH solution. Following this, 2% (w/w) trypsin was added and incubated at 37 °C for 2 h to simulate intestinal digestion. After digestion, the digest was inactivated in a water bath at 100 °C for 10 min, centrifuged at 10,000 r/min for 10 min, and the supernatant was freeze-dried to obtain the gastric intestinal digest of each of the six synthetic peptides. The MRPR was determined using the sample without any treatment as the control.

A further series deals with splenic lymphocytes. The arrangement: method as in doi:10.1016/j.jff.2020.103887. The note with it: 100 μg/mL; cited from earlier work.
For another series, the system named is TNF-α secretion. The arrangement: method as in doi:10.1016/j.jff.2020.103887. The settings on record: 100 μg/mL; cited from earlier work.
On the set-up of series [1]: method as in doi:10.1016/j.jff.2020.103887. The note with it: 100 μg/mL; cited from earlier work.

Where a SMILES comes first, the peptide text is derived from it. Where no end group is shown, it is not given here.

Turning to `CSCC[C@H](NC(=O)CNC(=O)[C@@H]1CCCN1)C(=O)N[C@@H](CCCNC(=N)N)C(=O)O` [PGMR] (H-PGMR-OH), the “Change of activity (MRPR) through gastrointestinal digestion, in words” value with pepsin and trypsin (pepsin then trypsin, 37 °C, 2 h each, versus untreated group) is recorded as “decreased, but was not significantly different”.
SAGFPEGF [SAGFPEGF]: in the series on pepsin and trypsin (2% (w/w) pepsin, pH 2.0, 37 °C, 2 h, versus untreated), the “Increase of MRPR in the gastric digestion” value came out at 11.23%.
Consider GPQGPPGH [GPQGPPGH], for which the “Maximal increase of MRPR through gastrointestinal digestion compared with the untreated group” value with pepsin and trypsin (read-out MRPR) was found to be 4.17%.
Turning to “RGPPP [Pseudostellaria heterophylla peptide from the literature]”, the “Stimulation index on splenic lymphocytes” value with splenic lymphocytes is 1.27. Besides, the “TNF-α secretion upregulated to” value with TNF-α secretion is recorded as 827.24 pg/mL. Moreover, the “Cytokinesis rate increased to” value in series [1] is recorded as 123.81%.
In the case of `N=C(N)NCCC[C@H](NC(=O)[C@H](CCC(N)=O)NC(=O)[C@@H](N)Cc1c[nH]c2ccccc12)C(=O)O` [WQR] (H-Trp-Gln-Arg-OH), the “Maximal increase of MRPR through gastrointestinal digestion compared with the untreated group” value in the series with pepsin and trypsin (read-out MRPR) is on record as 7.36%.
On to PSPFPYFT [PSPFPYFT], for which, in the series with pepsin and trypsin (2% (w/w) pepsin, pH 2.0, 37 °C, 2 h, read-out MRPR, mean ± SD), the “MRPR after the action of pepsin” value is reported as 143.06 ± 7.71%. For the same compound, the “MRPR after the action of trypsin” value in the series on pepsin and trypsin (after pepsin step, 2% (w/w) trypsin, pH 7.5, 37 °C, 2 h, read-out MRPR, mean ± SD) was found to be 148.80 ± 0.41%.
